Results on 40 molecules are retold here after patent US7994209B2, “3-phenoxymethylpyrrolidine compounds” (Theravance, Inc., priority 2009, dated 2011).

One experiment addresses hNET (Homo sapiens, UniProt P23975). The experiment can be described thus: hNET membrane radioligand binding assay (3H-nisoxetine), Assay 1.
The target in a further experiment is hSERT (Homo sapiens, UniProt P31645). Put plainly: hSERT membrane radioligand binding assay (3H-citalopram), Assay 1. Particulars: SERT pKi, hSERT HEK-293 membranes, 1.0 nM 3H-citalopram; values given as lower bounds.

Molecules are shown by their SMILES.

hSERT, sequence (P31645 whole entry): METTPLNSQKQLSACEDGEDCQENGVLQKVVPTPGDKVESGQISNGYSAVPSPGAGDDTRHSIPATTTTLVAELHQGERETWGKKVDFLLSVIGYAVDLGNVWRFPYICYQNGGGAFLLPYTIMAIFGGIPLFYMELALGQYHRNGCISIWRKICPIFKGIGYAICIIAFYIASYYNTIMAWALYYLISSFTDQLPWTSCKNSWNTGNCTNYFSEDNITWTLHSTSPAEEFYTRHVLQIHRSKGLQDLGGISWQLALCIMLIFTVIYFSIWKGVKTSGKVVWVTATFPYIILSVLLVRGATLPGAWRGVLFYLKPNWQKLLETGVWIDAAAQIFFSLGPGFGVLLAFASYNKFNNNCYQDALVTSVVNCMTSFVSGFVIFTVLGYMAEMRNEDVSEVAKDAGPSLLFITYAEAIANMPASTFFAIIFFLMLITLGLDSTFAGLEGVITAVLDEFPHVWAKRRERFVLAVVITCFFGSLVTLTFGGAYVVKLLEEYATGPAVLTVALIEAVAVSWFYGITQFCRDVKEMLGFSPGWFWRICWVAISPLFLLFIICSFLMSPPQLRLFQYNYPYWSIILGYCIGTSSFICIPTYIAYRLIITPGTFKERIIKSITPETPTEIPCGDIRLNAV
hNET, sequence (P23975 whole entry): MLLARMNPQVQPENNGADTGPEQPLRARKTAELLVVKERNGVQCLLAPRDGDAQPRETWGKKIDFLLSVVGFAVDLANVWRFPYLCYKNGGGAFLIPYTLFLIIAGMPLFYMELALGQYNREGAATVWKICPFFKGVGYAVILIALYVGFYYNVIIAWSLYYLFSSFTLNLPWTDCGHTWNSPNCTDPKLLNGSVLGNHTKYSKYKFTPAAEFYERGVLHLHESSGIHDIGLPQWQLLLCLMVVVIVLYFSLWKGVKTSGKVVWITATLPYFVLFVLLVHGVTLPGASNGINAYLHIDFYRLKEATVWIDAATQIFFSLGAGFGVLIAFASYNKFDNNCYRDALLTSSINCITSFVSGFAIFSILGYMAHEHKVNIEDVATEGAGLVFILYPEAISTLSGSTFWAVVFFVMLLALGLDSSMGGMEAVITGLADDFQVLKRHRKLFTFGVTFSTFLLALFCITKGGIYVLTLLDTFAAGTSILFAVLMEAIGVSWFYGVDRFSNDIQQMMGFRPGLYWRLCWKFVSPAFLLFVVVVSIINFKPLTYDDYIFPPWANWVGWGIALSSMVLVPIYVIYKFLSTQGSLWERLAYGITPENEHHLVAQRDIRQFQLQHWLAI
Procedure for hNET: Membrane radioligand binding assays were used to measure inhibition of labeled ligand (^3H-citalopram or ^3H-nisoxetine or ^3H-WIN35428) binding to membranes prepared from cells expressing the respective human recombinant transporter (hSERT or hNET or hDAT) in order to determine the pKi values of test compounds at the transporters.
Recombinant human embryonic kidney (HEK-293) derived cell lines stably transfected with hSERT or hNET, respectively, were grown in DMEM medium supplemented with 10% dialyzed FBS (for hSERT) or FBS (for hNET), 100 μg/mL penicillin, 100 μg/mL streptomycin, 2 mM L-glutamine and 250 μg/mL of the aminoglycoside antibiotic G418, in a 5% CO2 humidified incubator at 37° C. When cultures reached 80% confluence, the cells were washed thoroughly in PBS (without Ca^2+ and Mg^2+) and lifted with 5 mM EDTA in PBS. Cells were pelleted by centrifugation, resuspended in lysis buffer (10 mM Tris-HCl, pH7.5 containing 1 mM EDTA), homogenized, pelleted by centrifugation, then resuspended in 50 mM Tris-HCl, pH 7.5 and 10% sucrose at 4° C. Protein concentration of the membrane suspension was determined using a Bio-Rad Bradford Protein Assay kit. Membranes were snap frozen and stored at −80° C.
Binding assays were performed in a 96-well assay plate in a total volume of 200 μl assay buffer (50 mM Tris-HCl, 120 mM NaCl, 5 mM KCl, pH 7.4) with 0.5, 1, and 3 μg membrane protein, for SERT, NET and DAT, respectively.
Stock solutions (10 mM in DMSO) of test compound were prepared and serial dilutions made using Dilution Buffer (50 mM Tris-HCl, 120 mM NaCl, 5 mM KCl, pH 7.4, 0.1% BSA, 400 μM ascorbic acid).
Following a 60 minute incubation at 22° C. (or a period sufficient to reach equilibrium), the membranes were harvested by rapid filtration over a 96-well UniFilter GF/B plate, pretreated with 0.3% polyethyleneimine, and washed 6 times with 300 μl wash buffer (50 mM Tris-HCl, 0.9% NaCl, pH 7.5 at 4° C.). Plates were dried overnight at room temperature, approximately 45 μl of MicroScint™-20 (Perkin Elmer) added and bound radioactivity quantitated via liquid scintillation spectroscopy. Inhibition curves and saturation isotherms were analyzed using GraphPad Prism Software package (GraphPad Software, Inc., San Diego, Calif.). IC50 values were generated from concentration response curves using the Sigmoidal Dose Response (variable slope) algorithm in Prism GraphPad.

Consider `Cc1cc(Cl)ccc1O[C@H](C1CC1)[C@@H]1CCNC1` [Example 16-32, (R)-3-[(R)-(4-Chloro-2-methylphenoxy)cyclopropylmethyl]pyrrolidine], for which the values for the Ki on hNET and at hSERT were ≤ 100 nM and ≤ 10 nM, respectively.
For `Cc1cc(Cl)cc(C)c1O[C@@H](C1CC1)[C@H]1CCNC1` [Example 16-82, (S)-3-[(S)-(4-Chloro-2,6-dimethylphenoxy)cyclopropylmethyl]pyrrolidine], the values for the Ki on hNET and on hSERT were ≤ 100 nM and ≤ 10 nM, respectively.
On the same counts, the results for `CC(C)C(Oc1c(Cl)cccc1Cl)C1CCNC1` (centres unmarked) [Example 6-27, 3-[1-(2,6-Dichlorophenoxy)-2-methylpropyl]pyrrolidine] are ≤ 10 nM and ≤ 100 nM.
On the same counts, the results for `CCC[C@H](Oc1ccc(Cl)cc1C)[C@@H]1CCNC1` [Example 4-59, (R)-3-[(S)-1-(4-Chloro-2-methylphenoxy)butyl]pyrrolidine] are ≤ 10 nM and ≤ 10 nM.
In the same order, the values of `COc1ccc(Cl)c(O[C@@H](C2CC2)[C@H]2CCNC2)c1F` [Example 16-70, (S)-3-[(S)-(6-Chloro-2-fluoro-3-methoxyphenoxy)cyclopropylmethyl]pyrrolidine] are ≤ 10 nM and ≤ 100 nM.
As for `Clc1ccc(O[C@H](C2CC2)[C@H]2CCNC2)cc1` [Example 16-102, (S)-3-[(R)-(4-Chlorophenoxy)cyclopropylmethyl]pyrrolidine], the inhibition constant (Ki) (as a rule, a dissociation constant, usually derived from enzyme kinetics or from competition with a known ligand) is ≤ 100 nM on hNET and ≤ 10 nM on hSERT.
Turning to `CC(C)C(Oc1cccc(C(F)(F)F)c1)C1CCNC1` (centres unmarked) [Example 6-72, 3-[2-Methyl-1-(3-trifluoromethylphenoxy)-propyl]pyrrolidine], the Ki is ≤ 100 nM on hNET and ≤ 10 nM at hSERT.
On the same counts, the results for `CC[C@H](Oc1c(F)c(F)cc(F)c1F)[C@H]1CCNC1` [Example 2-56, (S)-3-[(S)-1-(2,3,5,6-Tetrafluorophenoxy)propyl]pyrrolidine] are ≤ 10 nM and ≤ 100 nM.
In the same order, the values of `Cc1cc(Cl)ccc1O[C@@H](CC(C)C)[C@@H]1CCNC1` [Example 10-46, (R)-3-[(S)-1-(4-Chloro-2-methylphenoxy)-3-methylbutyl]pyrrolidine] are ≤ 100 nM and ≤ 10 nM.
On the same counts, the results for `Fc1cccc(O[C@H](C2CCCCC2)[C@H]2CCNC2)c1` [Example 20-7, (S)-3-[(R)-Cyclohexyl-(3-fluorophenoxy)methyl]pyrrolidine] are ≤ 10 nM and ≤ 100 nM.
For `CCC[C@H](Oc1ccccc1Cl)[C@@H]1CCNC1` [Example 4-21, (R)-3-[(S)-1-(2-Chlorophenoxy)butyl]pyrrolidine], the Ki on hNET and on hSERT was ≤ 100 nM each time.
On to `Cc1cc(O[C@@H](C2CC2)[C@H]2CCNC2)c(Cl)c(C)c1Cl` [Example 16-83, (S)-3-[(S)cyclopropyl-(2,4-dichloro-3,5-dimethylphenoxy)-methyl]pyrrolidine], for which the Ki at hNET is ≤ 100 nM; at hSERT, ≤ 10 nM.
With `CCC[C@@H](Oc1ccc(Cl)cc1Cl)[C@@H]1CCNC1` [Example 4-31, (R)-3-[(R)-1-(2,4-Dichlorophenoxy)butyl]pyrrolidine], the inhibition constant (Ki) at hNET was ≤ 100 nM; on hSERT, ≤ 10 nM.
In the same order, the values of `CC(C)C(Oc1ccc(C(F)(F)F)cc1)C1CCNC1` (centres unmarked) [Example 6-77, 3-[2-Methyl-1-(4-trifluoromethylphenoxy)propyl]pyrrolidine] are ≤ 100 nM and ≤ 10 nM.
Turning to `Cc1cc(Cl)ccc1O[C@H](C(C)C)[C@H]1CCNC1` [Example 6-44, (S)-3-[(R)-1-(4-Chloro-2-methylphenoxy)-2-methylpropyl]pyrrolidine], the Ki at hNET is ≤ 100 nM; on hSERT it was ≤ 10 nM.
In the same order, the values of `CC[C@H](Oc1ccc(Cl)cc1C)[C@@H]1CCNC1` [Example 2-61, (R)-3-[(S)-1-(4-Chloro-2-methylphenoxy)propyl]pyrrolidine] are ≤ 100 nM and ≤ 10 nM.
In the same order, the values of `Cc1ccc(O[C@H](C2CC2)[C@@H]2CCNC2)c(Cl)c1` [Example 16-24, (R)-3-[(R)-(2-Chloro-4-methylphenoxy)cyclopropylmethyl]pyrrolidine] are ≤ 100 nM and ≤ 10 nM.
In the same order, the values of `Cc1cccc(Cl)c1O[C@@H](C1CC1)[C@H]1CCNC1` [Example 16-45, (S)-3-[(S)-(2-Chloro-6-methylphenoxy)cyclopropylmethyl]pyrrolidine] are ≤ 10 nM and ≤ 100 nM.
In the case of `CCC[C@H](Oc1ccc(Cl)cc1Cl)[C@@H]1CCNC1` [Example 4-30, (R)-3-[(S)-1-(2,4-Dichlorophenoxy)butyl]pyrrolidine], the results for the Ki on hNET and on hSERT were ≤ 100 nM and ≤ 10 nM, respectively.
On the same counts, the results for `CCC[C@H](Oc1cccc(Cl)c1Cl)[C@@H]1CCNC1` [Example 4-24, (R)-3-[(S)-1-(2,3-Dichlorophenoxy)butyl]pyrrolidine] are ≤ 100 nM and ≤ 10 nM.
With `Fc1ccccc1O[C@H](C1CCCCC1)[C@H]1CCNC1` [Example 20-1, (S)-3-[(R)-Cyclohexyl-(2-fluorophenoxy)methyl]pyrrolidine], the Ki was ≤ 10 nM on hNET and ≤ 100 nM on hSERT.
With `CCC[C@@H](Oc1ccc(Cl)cc1Cl)[C@H]1CCNC1` [Example 4-29, (S)-3-[(R)-1-(2,4-Dichlorophenoxy)butyl]pyrrolidine], the Ki is ≤ 100 nM on hNET and ≤ 10 nM at hSERT.
In the same order, the values of `CCC[C@H](Oc1cccc(Cl)c1C(F)(F)F)[C@@H]1CCNC1` [Example 4-70, (R)-3-[(S)-1-(3-Chloro-2-trifluoromethylphenoxy)butyl]pyrrolidine] are ≤ 100 nM and ≤ 10 nM.
On the same counts, the results for `CCC[C@H](Oc1cc(Cl)cc(Cl)c1)[C@@H]1CCNC1` [Example 4-8, (R)-3-[(S)-1-(3,5-Dichlorophenoxy)butyl]pyrrolidine] are ≤ 100 nM and ≤ 10 nM.
In the same order, the values of `FC(F)(F)c1ccc(O[C@@H](C2CC2)[C@H]2CCNC2)cc1` [Example 16-104, (S)-3-[(S)cyclopropyl-(4-trifluoromethylphenoxy)methyl]pyrrolidine] are ≤ 100 nM and ≤ 10 nM.
Turning to `CSc1ccccc1O[C@H](C1CC1)[C@H]1CCNC1` [Example 16-4, (S)-3-[(R)cyclopropyl-(2-methylsulfanylphenoxy)methyl]pyrrolidine], the Ki was ≤ 10 nM on hNET and ≤ 100 nM at hSERT.
On the same counts, the results for `CCC[C@@H](Oc1ccc(Cl)cc1)[C@@H]1CCNC1` [Example 4-4, (R)-3-[(R)-1-(4-Chlorophenoxy)butyl]pyrrolidine] are ≤ 100 nM and ≤ 10 nM.
On the same counts, the results for `CCCC[C@@H](Oc1ccc(C(F)(F)F)cc1)[C@H]1CCNC1` [Example 8-5, (S)-3-[(R)-1-(4-Trifluoromethylphenoxy)pentyl]pyrrolidine] are ≤ 100 nM and ≤ 10 nM.
In the same order, the values of `CC[C@H](Oc1cccc(Cl)c1C(F)(F)F)[C@@H]1CCNC1` [Example 2-73, (R)-3-[(S)-1-(3-Chloro-2-trifluoromethylphenoxy)propyl]pyrrolidine] are ≤ 100 nM and ≤ 10 nM.
Take `Fc1ccc(O[C@H](C2CC2)[C@@H]2CCNC2)cc1Cl` [Example 16-90, (R)-3-[(R)-(3-Chloro-4-fluorophenoxy)cyclopropylmethyl]pyrrolidine]: the Ki on hNET was ≤ 100 nM; on hSERT it was ≤ 10 nM.
On the same counts, the results for `COc1cc(F)ccc1O[C@H](C1CC1)[C@H]1CCNC1` [Example 16-39, (S)-3-[(R)cyclopropyl-(4-fluoro-2-methoxyphenoxy)methyl]pyrrolidine] are ≤ 100 nM and ≤ 10 nM.
Consider `CCC[C@H](Oc1ccc(C)cc1Cl)[C@@H]1CCNC1` [Example 4-38, (R)-3-[(S)-1-(2-Chloro-4-methylphenoxy)butyl]pyrrolidine], for which the Ki on hNET was ≤ 100 nM; at hSERT it was ≤ 10 nM.
In the same order, the values of `C#CC(Oc1ccc(Cl)cc1C)[C@H]1CCNC1` (stereo partly drawn) [Example 27-2, (S)-3-[1-(4-Chloro-2-methylphenoxy)prop-2-ynyl]pyrrolidine] are ≤ 100 nM and ≤ 10 nM.
For `Clc1ccc(O[C@H](C2CC2)[C@@H]2CCNC2)c(Cl)c1` [Example 16-21, (R)-3-[(R)cyclopropyl-(2,4-dichlorophenoxy)methyl]pyrrolidine], the inhibition constant Ki on hNET is ≤ 100 nM; at hSERT, ≤ 10 nM.
In the case of `CC(=O)c1c(F)cccc1O[C@@H](CC(C)C)[C@H]1CCNC1` [Example 10-38, 1-[2-Fluoro-6-((S)-3-methyl-1-(S)-pyrrolidin-3-yl-butoxy)phenyl]ethanone], the Ki on hNET is ≤ 10 nM; on hSERT, ≤ 100 nM.
In the same order, the values of `O=[N+]([O-])c1ccccc1O[C@H](C1CCCCC1)[C@H]1CCNC1` [Example 20-3, (S)-3-[(R)-Cyclohexyl-(2-nitrophenoxy)methyl]pyrrolidine] are ≤ 10 nM and ≤ 100 nM.
In the case of `FC(F)(F)c1cc(Cl)ccc1O[C@H](C1CC1)[C@@H]1CCNC1` [Example 16-36, (R)-3-[(R)-(4-Chloro-2-trifluoromethylphenoxy)cyclopropylmethyl]pyrrolidine], the inhibition constant (Ki) at hNET and on hSERT was ≤ 100 nM throughout.
On to `CC(C)[C@H](Oc1cccc(F)c1)[C@H]1CCNC1` [Example 6-54, (S)-3-[(S)-1-(3-Fluorophenoxy)-2-methylpropyl]pyrrolidine], for which the Ki on hNET was ≤ 10 nM; on hSERT it was ≤ 100 nM.
For the molecule `CC[C@H](Oc1ccccc1F)[C@H]1CCNC1` [Example 2-46, (S)-3-[(S)-1-(2-Fluorophenoxy)propyl]pyrrolidine], the Ki on hNET was ≤ 10 nM; at hSERT, ≤ 100 nM.
On the same counts, the results for `CC(C)[C@@H](Oc1c(Cl)cccc1Cl)[C@H]1CCNC1` [Example 6-29, (S)-3-[(R)-1-(2,6-Dichlorophenoxy)-2-methylpropyl]pyrrolidine] are ≤ 100 nM and ≤ 100 nM.
